Patent US20040138312A1, “Methods for the treatment of neurodegeneration” (priority 2002, published 2004)

Key:
Type in all cases: in vivo, C57B1/B6 type mice
[1] = test system: dopaminergic neurons in the substantia nigra (SN); assay: Neuron counting (tyrosine hydroxylase-labeled cells) in substantia nigra of MPTP-treated mice; conditions: for Neuron loss in the substantia nigra versus MPTP-treated animals: 3 mg/kg/day s.c. mini-pump 14 days, 55-60 days post MPTP; for Average Neuron Count (statistical error): substantia nigra, 3 mg/kg/day s.c. mini-pump 14 days + MPTP 40 mg/kg s.c., Control 60, Vehicle + MPTP 25
Excerpt: (§1) Between 55 and 60 day post MPTP injection, the mice are sacrificed using sodium nembutol. Mouse brains are perfused with phosphate buffered saline followed by Lana's fixative (paraformaldehyde and picric acid). The brains are removed and placed in Lana's fixative for 7 to 10 days. The brains are then sectioned coronally at 50 micrometers using a vibratome. And the sections stained with an antibody to tyrosine hydoxylase, the rate limiting enzyme in dopamine synthesis. The section was then examined under microscope at 100× magnification. Tissue slices (−2.9 mm and −3.6 mm posterior to Bregma were selected for cell counting in the SN and VTA. These sections are at the midpoint of the rostral half and the midpoint of the cauldual half of SN, respectively. Each TH-labeled cell that is clearly visible that has between 2 and 6 neurites is considered a neuron. An overall average count for each animal is calculated from the four sections (rostral and caudal, left and right). An average is obtained for the four sections. Separate analyses are performed on the neuron counts from SN and VTA. These counts are analyzed using a repeated measures ANOVA, following by tests of the between groups effect using Fisher's HSD method.
(§2) Mice that receive systemic injections of the pyridine toxin 1-methyl-4-phenyl-1,2,3,6-tetrahydropyridine (MPTP) selectively lose large numbers of dopaminergic neurons in the substantia nigra (SN) and the ventral tegmental area (VTA). Loss of dopamine cells in the SN mimics the clinical condition seen in Parkinson's disease. Loss of such cells in the VTA may contribute to the cognitive deficits seen in Parkinson's and Alzheimer's disease, due to these neurons' projections into the frontal cortex.
(§3) 50 C57B1/B6 type mice (8-12 weeks old) are allowed to acclimate for 12-14 days before experimental use. The mice are then randomly assigned to the following groups: MPTP plus DMSO vehicle; vehicle alone, MPTP plus brimonidine (3 mg/kg/day), MPTP plus AGN 197075 (3 mg/kg/day), and MPTP plus AGN 196923 (3 mg/kg/day)).
Four out of the 5 groups of mice receive an infusion of a test compound (or of vehicle containing no compound). These infusions are administered via subcutaneous implanted osmotic mini-pump over a 14 day period at a flow of 0.25 microliters/hour. Three days following implantation of the pumps, the mice are given the Open Field and Tail Hanging tests, along with the group of control mice, who are not implanted with mini-pumps. Immediately following the tests, the pump containing mice were given a 40 mg/kg injection of MPTP subcutaneously. All groups are then given the Open Field and Tail Hanging tests at 10-12 days and 30-40 days following MPTP treatment. The Open Field, and Tail Hanging tests are given at 50-55 days post MPTP treatment.

[2] = test system: MPTP-treated mice; assay: Open-Field test in MPTP-treated mice; conditions: for Open field activity compared with the vehicle group: 3 mg/kg/day s.c. osmotic mini-pump 14 days
Procedure: Each animal is placed in a clear plastic open field box with two rows of photo-beams mounted on the sides to distinguish be5tween horizontal (i.e. distance traveled) and vertical (i.e. “rears”) movements. Ambient conditions are low noise and dim lighting. The animal's movements within the box are measured for 5 minutes, and calculated from records of the number and type of “beam-breaks” or photo-beam crossings. On the last Open Field test, only rears are counted, and classified as either “supported” or “unsupported”. Supported rears are when an animal places at least one forelimb on the side wall of the box when a rear is recorded. In an unsupported rear the mouse is supported solely by hindlimbs. These rears are distinguished by videorecording. The number of unsupported rears is the most reliable measure of dopamine neuron loss in this test.
as §2, §3
In the presently described assays, each mouse is then given an initial Open-Field test and a Tail Hanging test. […]
(§4) For all behavioral tests, the results are first analyzed using a repeated measures ANOVA, following by tests of the between groups effect using Fisher's HSD method.

[3] = test system: MPTP-treated mice; assay: Tail Hanging test (forelimb placement) in MPTP-treated mice; conditions: during the period that the compound is administered; 3 mg/kg/day s.c. mini-pump
Excerpt: Mice are hung by their tails 3 times each, for approximately 10 seconds each time. Each mouse is hung by the base of its tail about 30 cm above the surface of a table until the mouse turns either left or right. A left turn is given a score of 0 and a right turn is given a score of 1.
Forelimb placement is also noted during tail hanging. The placement of the limbs is given a score on a 4 point scale. Extended limbs, or those placed above the head are given a score of 0. Limbs which are clasped or held against the body are given a score of 3. Scores of 1 or 2 are assigned for relative stages between the two extremes. Hindlimb placement is also scored as below.
as §2, §3
In the presently described assays, each mouse is then given an initial Open-Field test and a Tail Hanging test. The Open Field test is the most frequently used behavioral assay of MPTP-treated mice, and appears to be sensitive to loss of dopaminergic input from the substantia nigra. The Tail-Hanging test is sensitive to direct striatal damage; the Nest Building test is sensitive to loss of striatal input from the frontal cortex. […]
as §4

[4] = test system: dopaminergic neurons in the ventral tegmental area (VTA); assay: Neuron counting (tyrosine hydroxylase-labeled cells) in ventral tegmental area of MPTP-treated mice; conditions: 3 mg/kg/day s.c. mini-pump 14 days; MPTP alone 28% fewer neurons than Control
Excerpt: as §1, §2
as §3, with “mg/kg/day)). […]” for “mg/kg/day)).”

SMILES | Neuron loss in the substantia nigra versus MPTP-treated animals [1] | Average Neuron Count (statistical error) [1] | Open field activity compared with the vehicle group ([2]; 10 days post MPTP) | Impairment of forelimb extensions (tail hang test) [3] | Reduction of MPTP-induced neuron loss in the Ventral Tegmental area [4] | Number of unsupported rears compared with vehicle ([2]; 3 mg/kg/day s.c. mini-pump, 50-60 days post MPTP treatment) | Open field activity compared with the vehicle group ([2]; 10 and 30 days post MPTP (40 mg/kg s.c.))
CCC1=CC(Cc2c[nH]cn2)CCC1 (stereo not drawn) [AGN 196923] | significantly less neuron loss | 35 (±2) | significant reduces the amount of activity | no such trend | about 10% | – | –
OCCNC(=S)NCc1cccc(Cl)c1F [AGN 197075] | significantly less neuron loss | 37 (±2) | – | significantly reduces this impairment | about 10% | significantly more unsupported rears | –
Brc1c(NC2=NCCN2)ccc2nccnc12 [brimonidine, reference compound] | significantly less neuron loss | 32 (±1) | – | no such trend | about 10% | – | no alteration in this increase of activity
